Laboratory results reported in US9179694B2, “Method and composition for enhancing milk production and milk component concentrations” (PURINA ANIMAL NUTRITION LLC, priority 2003, dated 2015).

Assay: Dry matter feed intake in sorbitol feeding trials
Assay type: in vivo, Holstein cows
Description: To determine the dry matter weight (or dry matter basis or dry basis) of a particular sample, the sample is first weighed. The weighed sample is then dried in an oven at a temperature that is adequate to drive off moisture from the sample without degrading the sample components, such as a temperature ranging from about 100° C. to about 110° C. The oven drying is continued until the weight of the dried sample remains constant, despite additional oven drying. During the pre-partum period, for all cows utilized in Example One or Example Two, the pre-partum control feed, as modified to include any sorbitol indicated above for the different trials, was placed in the feeding troughs of the different cows participating in the different trials once daily in the morning. Thereafter, these different pre-partum feeds (the pre-partum control feed, including any incorporated sorbitol dosage of a particular trial during the pre-partum period) of the different trials were lightly stirred, separately and individually, in front of the cows of the different trials three times per day during the pre-partum period to encourage additional feed ingestion by the cows. Leftover rations from the previous day's feeding were collected and weighed from each feeding trough during the pre-partum period, prior to feeding the test cows on a subsequent day. The cows of the different trials received a sufficient amount of the pre-partum to ensure at least about ten weight percent of the pre-partum feeds of the different trials remained in the feeding troughs of each trial each day of the pre-partum period, based on the amount of the different pre-partum feeds of the different trials provided at the beginning of each day. Feed refusals were measured daily during the pre-partum period, and water was supplied ad libitum. During the early post-partum period, for all cows utilized in Example One or Example Two, the first post-partum control feed, as modified to include any sorbitol indicated above for the different trials, was placed in the feeding troughs of the different cows participating in the different trials once daily in the morning. Thereafter, these first post-partum feeds (the first post-partum control feed, including any incorporated sorbitol dosage of a particular trial during the early post-partum period) of the different trials were lightly stirred, separately and individually, in front of the cows of the different trials three times per day during the early post-partum period to encourage additional feed ingestion by the cows. Leftover rations from the previous day's feeding were collected and weighed from each feeding trough during the early post-partum period, prior to feeding the test cows on a subsequent day. The cows of the different trials received a sufficient amount of the first post-partum feed to ensure at least about ten weight percent of the first post-partum feeds of the different trials remained in the feeding troughs of each trial each day of the early post-partum period, based on the amount of the different first post-partum feeds of the different trials provided at the beginning of each day. Feed refusals were measured daily during the early post-partum period, and water was supplied ad libitum. […] Thereafter, the second post-partum control feed were lightly stirred, separately and individually, in front of the cows of the different trials three times per day during the weeks +5 through +8 to encourage additional feed ingestion by the cows. Leftover rations from the previous day's feeding were collected and weighed from each feeding trough during weeks +5 through +8, prior to feeding the test cows on a subsequent day. […]

## OC[C@@H](O)[C@@H](O)[C@H](O)[C@@H](O)CO [sorbitol]
Pre/Post Trial #1 (150/125/100 g/day in wk −3..−1/+1..+4/+5..+8), multiparious cows, week +7, two-trial comparison with Control Trial #2 (Table 22)
  Dry Matter Feed Intake: 54.9 lbs/day
Pre/Post Trial #1 (150/125/100 g/day in wk −3..−1/+1..+4/+5..+8), multiparious cows, week +8
  Dry Matter Intake: 57.1 lbs/day
Pre/Post Trial #1 (150/125/100 g/day in wk −3..−1/+1..+4/+5..+8), multiparious cows, week +8, two-trial comparison with Control Trial #2 (Table 22)
  Dry Matter Feed Intake: 57.4 lbs/day
Pre/Post Trial #1 (150/125/100 g/day in wk −3..−1/+1..+4/+5..+8), multiparious cows, week −1
  Dry Matter Intake: 33.3 lbs/day
Pre/Post Trial #1 (150/125/100 g/day in wk −3..−1/+1..+4/+5..+8), multiparious cows, week −1, two-trial comparison with Control Trial #2 (Table 22)
  Dry Matter Feed Intake: 33.4 lbs/day
Pre/Post Trial #1 (150/125/100 g/day in wk −3..−1/+1..+4/+5..+8), multiparious cows, week −2
  Dry Matter Intake: 34.6 lbs/day
Pre/Post Trial #1 (150/125/100 g/day in wk −3..−1/+1..+4/+5..+8), multiparious cows, week −2, two-trial comparison with Control Trial #2 (Table 22)
  Dry Matter Feed Intake: 35.2 lbs/day
Pre/Post Trial #1 (150/125/100 g/day in wk −3..−1/+1..+4/+5..+8), multiparious cows, week −2 versus −1
  Change in Dry Matter Feed Intake: −1.39 lbs/day
Pre/Post Trial #1 (150/125/100 g/day in wk −3..−1/+1..+4/+5..+8), multiparious cows, week −2 versus −1, two-trial comparison with Control Trial #2 (Table 22)
  Change in Dry Matter Feed Intake: −1.83 lbs/day
Pre/Post Trial #1 (150/125/100 g/day in wk −3..−1/+1..+4/+5..+8), multiparious cows, week −3
  Dry Matter Intake: 29.6 lbs/day
Pre/Post Trial #1 (150/125/100 g/day in wk −3..−1/+1..+4/+5..+8), multiparious cows, week −3, two-trial comparison with Control Trial #2 (Table 22)
  Dry Matter Feed Intake: 30.7 lbs/day
Pre/Post Trial #1 (150/125/100 g/day in wk −3..−1/+1..+4/+5..+8), multiparious cows, weeks +1 through +4
  Dry Matter Intake: 45.4 lbs/day
Pre/Post Trial #1 (150/125/100 g/day in wk −3..−1/+1..+4/+5..+8), multiparious cows, weeks +1 through +4, two-trial comparison with Control Trial #2 (Table 22)
  Dry Matter Feed Intake: 45.7 lbs/day
Pre/Post Trial #1 (150/125/100 g/day in wk −3..−1/+1..+4/+5..+8), multiparious cows, weeks +1 through +8
  Dry Matter Intake: 50.1 lbs/day
Pre/Post Trial #1 (150/125/100 g/day in wk −3..−1/+1..+4/+5..+8), multiparious cows, weeks +1 through +8, two-trial comparison with Control Trial #2 (Table 22)
  Dry Matter Feed Intake: 50.4 lbs/day
Pre/Post Trial #1 (150/125/100 g/day in wk −3..−1/+1..+4/+5..+8), multiparious cows, weeks +5 through +8
  Dry Matter Intake: 54.9 lbs/day
Pre/Post Trial #1 (150/125/100 g/day in wk −3..−1/+1..+4/+5..+8), multiparious cows, weeks +5 through +8, two-trial comparison with Control Trial #2 (Table 22)
  Dry Matter Feed Intake: 55.3 lbs/day
Pre/Post Trial #1 (150/125/100 g/day in wk −3..−1/+1..+4/+5..+8), multiparious cows, weeks −3 through −1
  Dry Matter Intake: 32.6 lbs/day
Pre/Post Trial #1 (150/125/100 g/day in wk −3..−1/+1..+4/+5..+8), multiparious cows, weeks −3 through −1, two-trial comparison with Control Trial #2 (Table 22)
  Dry Matter Feed Intake: 33.0 lbs/day
Pre/Post Trial #1 (150/125/100 g/day) compared to Control Trial #2, multiparous cows, week −1 before calving versus week +1 after calving
  greater increase of dry matter feed intake: 3.19 pounds per day
Pre/Post Trial #1 (150/125 g/day pre-/early post-partum) versus Pre/Post Trial #2 (75/75 g/day), multiparious cows, early post-partum period (weeks +1 through +4)
  greater daily rate of dry matter feed intake: 7.6%
Pre/Post Trial #2 (75/75/100 g/day in wk −3..−1/+1..+4/+5..+8), multiparious cows, week +1
  Dry Matter Intake: 33.1 lbs/day
Pre/Post Trial #2 (75/75/100 g/day in wk −3..−1/+1..+4/+5..+8), multiparious cows, week +1 versus −1
  Change in Dry Matter Feed Intake: 0.72 lbs/day
Pre/Post Trial #2 (75/75/100 g/day in wk −3..−1/+1..+4/+5..+8), multiparious cows, week +2
  Dry Matter Intake: 41.2 lbs/day
Pre/Post Trial #2 (75/75/100 g/day in wk −3..−1/+1..+4/+5..+8), multiparious cows, week +3
  Dry Matter Intake: 45.3 lbs/day
Pre/Post Trial #2 (75/75/100 g/day in wk −3..−1/+1..+4/+5..+8), multiparious cows, week +4
  Dry Matter Intake: 49.8 lbs/day
Pre/Post Trial #2 (75/75/100 g/day in wk −3..−1/+1..+4/+5..+8), multiparious cows, week +5
  Dry Matter Intake: 53.6 lbs/day
Pre/Post Trial #2 (75/75/100 g/day in wk −3..−1/+1..+4/+5..+8), multiparious cows, week +6
  Dry Matter Intake: 54.2 lbs/day
Pre/Post Trial #2 (75/75/100 g/day in wk −3..−1/+1..+4/+5..+8), multiparious cows, week +7
  Dry Matter Intake: 53.3 lbs/day
Pre/Post Trial #2 (75/75/100 g/day in wk −3..−1/+1..+4/+5..+8), multiparious cows, week +8
  Dry Matter Intake: 55.0 lbs/day
Pre/Post Trial #2 (75/75/100 g/day in wk −3..−1/+1..+4/+5..+8), multiparious cows, week −1
  Dry Matter Intake: 32.3 lbs/day
Pre/Post Trial #2 (75/75/100 g/day in wk −3..−1/+1..+4/+5..+8), multiparious cows, week −2
  Dry Matter Intake: 36.3 lbs/day
Pre/Post Trial #2 (75/75/100 g/day in wk −3..−1/+1..+4/+5..+8), multiparious cows, week −2 versus −1
  Change in Dry Matter Feed Intake: −3.91 lbs/day
Pre/Post Trial #2 (75/75/100 g/day in wk −3..−1/+1..+4/+5..+8), multiparious cows, week −3
  Dry Matter Intake: 31.9 lbs/day
Pre/Post Trial #2 (75/75/100 g/day in wk −3..−1/+1..+4/+5..+8), multiparious cows, weeks +1 through +4
  Dry Matter Intake: 42.2 lbs/day
Pre/Post Trial #2 (75/75/100 g/day in wk −3..−1/+1..+4/+5..+8), multiparious cows, weeks +1 through +8
  Dry Matter Intake: 48.2 lbs/day
Pre/Post Trial #2 (75/75/100 g/day in wk −3..−1/+1..+4/+5..+8), multiparious cows, weeks +5 through +8
  Dry Matter Intake: 54.1 lbs/day
Pre/Post Trial #2 (75/75/100 g/day in wk −3..−1/+1..+4/+5..+8), multiparious cows, weeks −3 through −1
  Dry Matter Intake: 33.2 lbs/day
Average of means of Pre-Partum Trial #2, Pre/Post Trial #1 and Pre/Post Trial #2 versus Control Trial #2, multiparious cows, pre-partum period (weeks −3 through −1)
  decrease in dry matter feed intake: 4.9%
